Measured values from PubChem BioAssay AID2060884 (Molecular Pharmacology Branch, DTP, NCI, 2025).
Several values for one entry are separate records, joined by “and”; a condition that tells them apart may be missing. Equal values may be shown once.

System: NCI-H929 complex spheroids, viability % test/control
Experiment: Anticancer human tumor NCI-H929 cell line growth inhibition [RAS];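 note: compound exposure lasted seven days before viability was read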;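 for viability, T/C: 100% = DMSO vehicle control viability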
Conditions: for viability, T/C: stronger effect = lower value
How it was run: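 Multi-cell-type spheroids: tumor cells plus HUVEC endothelial cells and mesenchymal stem cells. RAS-pathway inhibitors were combined with targeted agents, each dosed in half-log steps down from clinical Cmax, or from 10 microM when Cmax was unknown.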

[1] = curve of first compound, second compound 0.000949 µM
[2] = curve of first compound, second compound 0.003 µM
[3] = curve of first compound, second compound 0.00949 µM
[4] = curve of first compound, second compound 0.03 µM
[5] = curve of first compound, second compound 0.0949 µM
[6] = curve of first compound, second compound 0.3 µM
[7] = second compound 0.000949 µM, first compound 0.00316 µM
[8] = second compound 0.000949 µM, first compound 0.01 µM
[9] = second compound 0.000949 µM, first compound 0.0316 µM
[10] = second compound 0.000949 µM, first compound 0.1 µM
[11] = second compound 0.000949 µM, first compound 0.316 µM
[12] = second compound 0.000949 µM, first compound 1 µM
[13] = second compound 0.003 µM, first compound 0.00316 µM
[14] = second compound 0.003 µM, first compound 0.01 µM
[15] = second compound 0.003 µM, first compound 0.0316 µM
[16] = second compound 0.003 µM, first compound 0.1 µM
[17] = second compound 0.003 µM, first compound 0.316 µM
[18] = second compound 0.003 µM, first compound 1 µM
[19] = second compound 0.00949 µM, first compound 0.00316 µM
[20] = second compound 0.00949 µM, first compound 0.01 µM
[21] = second compound 0.00949 µM, first compound 0.0316 µM
[22] = second compound 0.00949 µM, first compound 0.1 µM
[23] = second compound 0.00949 µM, first compound 0.316 µM
[24] = second compound 0.00949 µM, first compound 1 µM
[25] = second compound 0.03 µM, first compound 0.00316 µM
[26] = second compound 0.03 µM, first compound 0.01 µM
[27] = second compound 0.03 µM, first compound 0.0316 µM
[28] = second compound 0.03 µM, first compound 0.1 µM
[29] = second compound 0.03 µM, first compound 0.316 µM
[30] = second compound 0.03 µM, first compound 1 µM
[31] = second compound 0.0949 µM, first compound 0.00316 µM
[32] = second compound 0.0949 µM, first compound 0.01 µM
[33] = second compound 0.0949 µM, first compound 0.0316 µM
[34] = second compound 0.0949 µM, first compound 0.1 µM
[35] = second compound 0.0949 µM, first compound 0.316 µM
[36] = second compound 0.0949 µM, first compound 1 µM
[37] = second compound 0.3 µM, first compound 0.00316 µM
[38] = second compound 0.3 µM, first compound 0.01 µM
[39] = second compound 0.3 µM, first compound 0.0316 µM
[40] = second compound 0.3 µM, first compound 0.1 µM
[41] = second compound 0.3 µM, first compound 0.316 µM
[42] = second compound 0.3 µM, first compound 1 µM

`C=CC(=O)N1CCN(c2nc(OCC3CCCN3C)nc3c(F)c(-c4nc(N)cc(C)c4C(F)(F)F)c(Cl)cc23)C(C)C1` (stereo unspecified) + CCn1c(-c2cccnc2C(C)OC)c2c3cc(ccc31)N1CCOC(CC(NC(=O)C(C(C)C)N(C)C(=O)C3(F)CCN(C(=O)C#CC(C)(C)N(C)C)CC3)C(=O)N3CCCC(N3)C(=O)OCC(C)(C)C2)C1 was tested, and the IC50 [1] was > 1000 nM, the IC50 [2] was > 1000 nM and the IC50 [3] was > 1000 nM. For the same compound, the IC50 [4] was > 1000 nM, the IC50 [5] was > 1000 nM and the IC50 [6] was > 1000 nM. It also gave a viability, T/C [7] of 104%, a viability, T/C [8] of 103% and a viability, T/C [9] of 103%. The viability, T/C [10] was 104%, the viability, T/C [11] was 102% and the viability, T/C [12] was 105%. It also gave a viability, T/C [13] of 104%, a viability, T/C [14] of 105% and a viability, T/C [15] of 101%. The viability, T/C [16] was 102%, the viability, T/C [17] was 107% and the viability, T/C [18] was 104%. For the same compound, the viability, T/C [19] was 104%, the viability, T/C [20] was 101% and the viability, T/C [21] was 106%. It also gave a viability, T/C [22] of 107%, a viability, T/C [23] of 106% and a viability, T/C [24] of 105%. The viability, T/C [25] was 102%, the viability, T/C [26] was 99.7% and the viability, T/C [27] was 106%. It also gave a viability, T/C [28] of 105%, a viability, T/C [29] of 106% and a viability, T/C [30] of 107%. It also gave a viability, T/C [31] of 102%, a viability, T/C [32] of 103% and a viability, T/C [33] of 106%. For the same compound, the viability, T/C [34] was 104%, the viability, T/C [35] was 107% and the viability, T/C [36] was 104%. For the same compound, the viability, T/C [37] was 102%, the viability, T/C [38] was 104% and the viability, T/C [39] was 106%. It also gave a viability, T/C [40] of 107%, a viability, T/C [41] of 107% and a viability, T/C [42] of 103%.

In the case of `C=CC(=O)N1CCN(c2nc(OCC3CCCN3C)nc3c(F)c(-c4nc(N)cc(C)c4C(F)(F)F)c(Cl)cc23)C(C)C1` (stereo unspecified) + CCn1c(-c2cc(N3CCN(C)CC3)cnc2C(C)OC)c2c3cc(ccc31)-c1csc(n1)CC(NC(=O)C1CC1C)C(=O)N1CCCC(N1)C(=O)OCC(C)(C)C2, the IC50 [1] is reported as > 1000 nM, the IC50 [2] is reported as > 1000 nM and the IC50 [3] is reported as > 1000 nM. The IC50 [4] was > 1000 nM, the IC50 [5] was < 3.16 nM and the IC50 [6] was < 3.16 nM. It also gave a viability, T/C [7] of 98.6%, a viability, T/C [8] of 92.4% and a viability, T/C [9] of 102%. The viability, T/C [10] was 96.4%, the viability, T/C [11] was 101% and the viability, T/C [12] was 107%. For the same compound, the viability, T/C [13] was 89.5%, the viability, T/C [14] was 97.1% and the viability, T/C [15] was 97.5%. For the same compound, the viability, T/C [16] was 96.6%, the viability, T/C [17] was 101% and the viability, T/C [18] was 97.2%. The viability, T/C [19] was 109%, the viability, T/C [20] was 115% and the viability, T/C [21] was 116%. For the same compound, the viability, T/C [22] was 114%, the viability, T/C [23] was 114% and the viability, T/C [24] was 116%. For the same compound, the viability, T/C [25] was 69.4%, the viability, T/C [26] was 70.8% and the viability, T/C [27] was 78.2%. For the same compound, the viability, T/C [28] was 91%, the viability, T/C [29] was 89.7% and the viability, T/C [30] was 65.1%. For the same compound, the viability, T/C [31] was 8.79%, the viability, T/C [32] was 7.92% and the viability, T/C [33] was 7.39%. For the same compound, the viability, T/C [34] was 10.4%, the viability, T/C [35] was 12.4% and the viability, T/C [36] was 8.5%. The viability, T/C [37] was 4.59%, the viability, T/C [38] was 4.22% and the viability, T/C [39] was 3.75%. The viability, T/C [40] was 4.24%, the viability, T/C [41] was 4.79% and the viability, T/C [42] was 3.26%.

`CC(C)n1nc(-c2ccc3oc(N)nc3c2)c2c(N)ncnc21` was tested, and the viability, T/C (compound 0.000316 µM) was 105% [middle of 4 runs], the viability, T/C (compound 0.001 µM) was 104% (2×) and 99.9% and 103% and the viability, T/C (compound 0.00316 µM) was 110% [middle of 4 runs]. For the same compound, the viability, T/C (compound 0.01 µM) was 99% and 112% (2×) and 109%, the viability, T/C (compound 0.0316 µM) was 52.1% and 119% (2×) and 94.3% and the viability, T/C (compound 0.1 µM) was 9.59% [middle of 4 runs]. The IC50 (curve of compound) was 33.1 nM and 62.7 nM and 55.5 nM.
